System: PC-3 human hormone-independent prostate cancer
Assay: Effect of treatment with GH-RH antagonists on PC-3 human prostate cancer xenografts in nude mice
Format: in vivo
Conditions: male nude mice, s.c. PC-3 xenografts, 2 ug/day s.c.
Experimental: Male nude mice were implanted s.c. with 3 mm3 pieces of PC-3 human hormone-independent prostate cancer tissue on both flanks. When tumors reached a volume of approximately 50 mm3, the mice were divided into 14 experimental groups with 8 to 10 animals in each group and received single daily injections for 28 as follows: 1. Control (vehicle solution); 2. P-12211 (2 μg/day s.c.); 3. P-12307 (2 μg/day s.c.); 4. P-12317 (2 μg/day s.c.); 5. P-12408 (2 μg/day s.c.); 6. P-12409 (2 μg/day s.c.); 7. P-12457 (2 μg/day s.c.); 8. P-12473 (2 μg/day s.c.); 9. P-12479 (2 μg/day s.c.); 10. P-12600 (2 μg/day s.c.); 11. P-12601 (2 μg/day s.c.); 12. P-12602 (2 μg/day s.c.); 13. P-12603 (2 μg/day s.c.); and 14. P-12610 (2 μg/day s.c.).
The inhibitory effect of P-12473, P-12479, P-12600, P-12601, P-12602, and P-12610 were statistically significant (p<0.001).
Effect of Treatment with GH-RH Antagonists on PC-3 Human Prostate Cancer Xenografts in Nude Mice

[PhAc^0-Tyr^1, D-Arg^2, Cpa^6, Ala^8, Har^9, Fpa5^10, His^11, Orn^12, Abu^15, His^20, Orn^21, Nle^27, D-Arg^28, Har^29, Ada^30]hGH-RH(1-30)NH2 [Peptide P-12610]
Tumor Growth after 4 weeks (%) (single daily injections for 28): 474.98%
Tumor growth inhibition after 4 weeks (%) (single daily injections for 28, versus control): 77.78%
